# Organism: Rattus norvegicus
# Experiment: Open TG-GATES - Regimen: Single
# Type: toxicity, organism-based, Sprague-Dawley
# Design: regimen Single, gender Male, age 6 weeks
# Details: in vivo, po, 0 mg/kg, route gavage, dose level Control; for APTT / Bas / Eos / Fbg / Hb / Ht / Lym / MCH / MCHC / MCV / Mono / Neu / PT / Plat / RBC / Ret / WBC: tissue Blood; for KIDNEY_L / KIDNEY_R / KIDNEY_TOTAL: tissue Kidney; for LIVER: tissue Liver; for A/G / ALP / ALT / AST / BUN / CRE / Ca / Cl / DBIL / GLC / IP / K / LDH / Na / PL / RALB / TBIL / TC / TG / TP / gamma-GTP: tissue Plasma
smiles,measurement,setting,value
CN(C)CCC=C1c2ccccc2CCc2ccccc21 [AMITRIPTYLINE],TERMINAL_BW,3 h,194 g
same,APTT,3 h,16.6 s
same,Bas,3 h,0%
same,Eos,3 h,0.8%
same,Fbg,3 h,235.6 mg/dL
same,Hb,3 h,12.8 g/dL
same,Ht,3 h,39.8%
same,Lym,3 h,77.6%
same,MCH,3 h,20.9 pg
same,MCHC,3 h,32.3%
same,MCV,3 h,64.6 fL
same,Mono,3 h,3.4%
same,Neu,3 h,17.2%
same,PT,3 h,16.2 s
same,Plat,3 h,103.9 x10_4/uL
same,RBC,3 h,616.6 x10_4/ul
same,Ret,3 h,9.3%
same,WBC,3 h,90.6 x10_2/uL
same,KIDNEY_L,3 h,0.9 g
same,KIDNEY_R,3 h,0.9 g
same,KIDNEY_TOTAL,3 h,1.7 g
same,LIVER,3 h,8.2 g
same,A/G,3 h,0.8
same,ALP,3 h,1452 IU/L
same,ALT,3 h,48.2 IU/L
same,AST,3 h,80.8 IU/L
same,BUN,3 h,8.8 mg/dL
same,CRE,3 h,0.2 mg/dL
same,Ca,3 h,10.7 mg/dL
same,Cl,3 h,106 meq/L
same,DBIL,3 h,0.01 mg/dL
same,GLC,3 h,183.6 mg/dL
same,IP,3 h,9.2 mg/dL
same,K,3 h,4.1 meq/L
same,LDH,3 h,66.2 IU/L
same,Na,3 h,143 meq/L
same,PL,3 h,124.4 mg/dL
same,RALB,3 h,2.4 g/dL
same,TBIL,3 h,0.062 mg/dL
same,TC,3 h,67.6 mg/dL
same,TG,3 h,44.4 mg/dL
same,TP,3 h,5.3 g/dL
same,gamma-GTP,3 h,1 IU/L
same,TERMINAL_BW,6 h,193.8 g
same,APTT,6 h,17 s
same,Bas,6 h,0%
same,Eos,6 h,0.8%
same,Fbg,6 h,256.2 mg/dL
same,Hb,6 h,12.7 g/dL
same,Ht,6 h,38.9%
same,Lym,6 h,72.6%
same,MCH,6 h,20.6 pg
same,MCHC,6 h,32.6%
same,MCV,6 h,63.3 fL
same,Mono,6 h,2.4%
same,Neu,6 h,23.2%
same,PT,6 h,15.8 s
same,Plat,6 h,119.8 x10_4/uL
same,RBC,6 h,615.8 x10_4/ul
same,Ret,6 h,8.9%
same,WBC,6 h,66 x10_2/uL
same,KIDNEY_L,6 h,0.9 g
same,KIDNEY_R,6 h,0.8 g
same,KIDNEY_TOTAL,6 h,1.7 g
same,LIVER,6 h,8.2 g
same,A/G,6 h,0.9
same,ALP,6 h,1334.2 IU/L
same,ALT,6 h,44.6 IU/L
same,AST,6 h,74.4 IU/L
same,BUN,6 h,8.6 mg/dL
same,CRE,6 h,0.1 mg/dL
same,Ca,6 h,10.7 mg/dL
same,Cl,6 h,105.8 meq/L
same,DBIL,6 h,0.008 mg/dL
same,GLC,6 h,173.6 mg/dL
same,IP,6 h,9.8 mg/dL
same,K,6 h,4.2 meq/L
same,LDH,6 h,62 IU/L
same,Na,6 h,142.6 meq/L
same,PL,6 h,142.6 mg/dL
same,RALB,6 h,2.5 g/dL
same,TBIL,6 h,0.06 mg/dL
same,TC,6 h,78.4 mg/dL
same,TG,6 h,67 mg/dL
same,TP,6 h,5.4 g/dL
same,gamma-GTP,6 h,1 IU/L
same,TERMINAL_BW,9 h,191.9 g
same,APTT,9 h,16 s
same,Bas,9 h,0%
same,Eos,9 h,1%
same,Fbg,9 h,295.6 mg/dL
same,Hb,9 h,12.8 g/dL
same,Ht,9 h,39.1%
same,Lym,9 h,77.6%
same,MCH,9 h,20.9 pg
same,MCHC,9 h,32.8%
same,MCV,9 h,63.9 fL
same,Mono,9 h,2.4%
same,Neu,9 h,18.6%
same,PT,9 h,15.2 s
same,Plat,9 h,119.1 x10_4/uL
same,RBC,9 h,611.8 x10_4/ul
same,Ret,9 h,8.5%
same,WBC,9 h,71.6 x10_2/uL
same,KIDNEY_L,9 h,0.9 g
same,KIDNEY_R,9 h,0.9 g
same,KIDNEY_TOTAL,9 h,1.7 g
same,LIVER,9 h,7.8 g
same,A/G,9 h,0.8
same,ALP,9 h,1549.8 IU/L
same,ALT,9 h,40.8 IU/L
same,AST,9 h,71.4 IU/L
same,BUN,9 h,8.8 mg/dL
same,CRE,9 h,0.2 mg/dL
same,Ca,9 h,10.7 mg/dL
same,Cl,9 h,106.6 meq/L
same,DBIL,9 h,0.01 mg/dL
same,GLC,9 h,174.8 mg/dL
same,IP,9 h,10 mg/dL
same,K,9 h,4 meq/L
same,LDH,9 h,60.4 IU/L
same,Na,9 h,142.6 meq/L
same,PL,9 h,140.4 mg/dL
same,RALB,9 h,2.5 g/dL
same,TBIL,9 h,0.06 mg/dL
same,TC,9 h,79.4 mg/dL
same,TG,9 h,44 mg/dL
same,TP,9 h,5.4 g/dL
same,gamma-GTP,9 h,1 IU/L
same,TERMINAL_BW,24 h,208.1 g
same,APTT,24 h,16.3 s
same,Bas,24 h,0.4%
same,Eos,24 h,1%
same,Fbg,24 h,266 mg/dL
same,Hb,24 h,12.5 g/dL
same,Ht,24 h,38.5%
same,Lym,24 h,77.8%
same,MCH,24 h,21.2 pg
same,MCHC,24 h,32.4%
same,MCV,24 h,65.5 fL
same,Mono,24 h,3.2%
same,Neu,24 h,17%
same,PT,24 h,16.3 s
same,Plat,24 h,110 x10_4/uL
same,RBC,24 h,589.4 x10_4/ul
same,Ret,24 h,9.5%
same,WBC,24 h,101.9 x10_2/uL
same,KIDNEY_L,24 h,0.9 g
same,KIDNEY_R,24 h,0.9 g
same,KIDNEY_TOTAL,24 h,1.8 g
same,LIVER,24 h,9.6 g
same,A/G,24 h,0.8
same,ALP,24 h,1573.8 IU/L
same,ALT,24 h,48.2 IU/L
same,AST,24 h,77.4 IU/L
same,BUN,24 h,15.4 mg/dL
same,CRE,24 h,0.2 mg/dL
same,Ca,24 h,11.1 mg/dL
same,Cl,24 h,105 meq/L
same,DBIL,24 h,0.016 mg/dL
same,GLC,24 h,186.4 mg/dL
same,IP,24 h,8.2 mg/dL
same,K,24 h,4 meq/L
same,LDH,24 h,90.2 IU/L
same,Na,24 h,143.2 meq/L
same,PL,24 h,153.8 mg/dL
same,RALB,24 h,2.6 g/dL
same,TBIL,24 h,0.054 mg/dL
same,TC,24 h,79.4 mg/dL
same,TG,24 h,97.4 mg/dL
same,TP,24 h,5.6 g/dL
same,gamma-GTP,24 h,0.6 IU/L

# Reference: ChEMBL document CHEMBL3885861, “Open TG-GATES”
